# pIC50: −log10 of the molar value. Like-named read-outs stand apart in the source and are kept apart here.
# Key:
# [1] = test system: MDA-MB-436 cells with BRCA1 mutation; test: Anti-proliferation study on MDA-MB-436 cells (CellTiter-Glo); format: cell-based; settings: Homo sapiens, MDA-MB-436, 168 h; 7 days incubation
# Protocol: Materials: test compounds; RPMI-1640 medium; fetal bovine serum; penicillin/streptomycin antibiotic; MDA-MB-436 cells; Envision Multimode Plate Reader (PerkinElmer). MDA-MB-436 cells were seeded in a white 96-well plate by adding 80 μL of cell suspension (containing 3000 MDA-MB-436 cells) to each well. The cell plate was incubated in a CO2 incubator overnight. The test compounds were serially 5-fold diluted to the 8th concentration with a multichannel pipette, i.e., from 2 mM to 26 nM, in duplicate. 78 μL of medium was added to an intermediate plate, and the serially diluted compound was transferred to the intermediate plate at 2 μL per well. After being mixed well, the mixture was transferred to the cell plate at 20 μL per well. […] Another cell plate was provided for reading signal values on the day of compound addition and these signal values were used as Max values in data analysis. Promega CellTiter-Glo was added to the cell plate at 25 μL per well and the luminescence signals were stabilized by incubation for 10 min at room temperature. Readings were taken using a PerkinElmer Envision Multimode Plate Reader. […]
# [2] = Accelerated stability test at 40° C.±2° C. and 75±5% RH; format: physicochemical; settings: 40° C. ± 2° C./75 ± 5% RH
# Protocol: 2. Accelerated Test • Examination conditions: Samples of crystalline form A of the compound of formula (I) were packed into double-layer pharmaceutical low-density polyethylene bags. Each layer of the pharmaceutical low-density polyethylene bag was sealed, then the bags were put into aluminum foil bags, and the aluminum foil bags were heat-sealed. Accelerated test was conducted at 40° C.±2° C. and 75±5% RH.
# [3] = Preliminary stability examination at 60° C. and 75% humidity; format: physicochemical; settings: 60° C. 75% RH
# Protocol: 1. Preliminary Stability Examination • Examination conditions: The stability of crystalline form A and crystalline form B was simultaneously examined at 60° C. and 75% humidity.
# [4] = Single-dose pharmacokinetic study in mice; format: in vivo, male C57BL/6 mice
# Protocol: Objectives: To evaluate the pharmacokinetic behavior in male C57BL/6 mice and to determine the drug concentrations of the compound in the plasma, liver and cerebrospinal fluid after a single dose.
# Procedures: Healthy adult male C57BL/6 mice were selected for intragastric administration. The candidate compound was mixed with an appropriate amount of 10% DMSO/90% (20% hydroxypropyl-@-cyclodextrin), vortexed and sonicated to prepare a 0.5 mg/mL clear solution for later use. After the mice were administered intravenously at 1 mg/kg and orally at 5 mg/kg, whole blood was collected at certain time points. Plasma was separated, and liver and cerebrospinal fluid were collected. After pretreatment of the samples, the drug concentration was measured by LC-MS/MS, and pharmacokinetic parameters were calculated using Phoenix WinNonlin software.
smiles,measurement,setting,value
C[C@]1(c2ccc(-c3[nH]c4cc(F)cc5c4c3CONC5=O)cc2)CCCN1.Cl [Crystalline form A],pIC50,[1],8.08
same,Appearance,[2]; Initial values,Earthy yellow
same,Content,[2]; Initial values,98.0%
same,Isomer,[2]; Initial values,Not detectable
same,Total impurities,[2]; Initial values,0.45%
same,Water content,[2]; Initial values,2.07%
same,Appearance,[2]; Month 1,Earthy yellow
same,Content,[2]; Month 1,96.2%
same,Isomer,[2]; Month 1,Not detectable
same,Total impurities,[2]; Month 1,0.75%
same,Water content,[2]; Month 1,2.50%
same,Appearance,[2]; Month 2,Earthy yellow
same,Content,[2]; Month 2,96.9%
same,Isomer,[2]; Month 2,Not detectable
same,Total impurities,[2]; Month 2,0.78%
same,Water content,[2]; Month 2,2.26%
same,Appearance,[2]; Month 3,Earthy yellow
same,Content,[2]; Month 3,96.9%
same,Isomer,[2]; Month 3,Not detectable
same,Total impurities,[2]; Month 3,0.62%
same,Water content,[2]; Month 3,1.89%
same,Appearance,[2]; Month 6,Earthy yellow
same,Content,[2]; Month 6,97.5%
same,Isomer,[2]; Month 6,Not detectable
same,Total impurities,[2]; Month 6,0.93%
same,Water content,[2]; Month 6,2.14%
same,"Preliminary stability examination (content, %) Day 0",[3],99.73%
same,"Preliminary stability examination (content, %) Day 10",[3],99.72%
C[C@]1(c2ccc(-c3[nH]c4cc(F)cc5c4c3CONC5=O)cc2)CCCN1.Cl [Crystalline form B],"Preliminary stability examination (content, %) Day 0",[3],99.09%
same,"Preliminary stability examination (content, %) Day 10",[3],98.93%
"CNCc1ccc(-c2[nH]c3cc(F)cc4c3c2CCNC4=O)cc1 [Rucaparib, reference compound]",Maximum concentration,[4]; IV: 1 mg/kg PO: 5 mg/kg,24.8 nM
same,AUC(0-t),"[4]; male, C57BL/6, mouse, plasma, IV 1 mg/kg, read-out: AUC0-last (intravenous injection)",0.255 µM·h
same,half-life,"[4]; male, C57BL/6, mouse, plasma, IV: 1 mg/kg PO: 5 mg/kg",1.78 h
same,AUC(0-t),"[4]; male, C57BL/6, mouse, plasma, PO 5 mg/kg, read-out: AUC0-last (oral)",0.145 µM·h

# Source: patent US20230331739A1, “INDOLO HEPTAMYL OXIME ANALOG CRYSTAL AS PARP INHIBITOR AND METHOD FOR PREPARING SAME” (CHIA TAI TIANQING PHARMACEUTICAL GROUP CO., LTD., priority 2020, published 2023)
